Results from patent publication US5112833A, “1-azaindolizine derivatives, synthetic intermediates thereof and antiallergic agents containing 1-azaindolizine derivatives” (Zenyaku Kogyo Kabushiki Kaisha, priority 1988, dated 1992).
Structures can show the parent of a compound that is named as a salt.

Legend:
[1] = system: homologous passive cutaneous anaphylaxis (PCA) reaction; assay: Inhibition of homologous passive cutaneous anaphylaxis (PCA) reaction; format: in vivo, male Wistar rats; conditions: Rattus norvegicus, 0.5 h, rats, read-out: Inhibition (%) of leaked amount of dye in PCA reaction; for inhibition in vivo at 20 mg/kg: intravenous, immediately before ovalbumin challenge, *P < 0.02, **P < 0.005
Procedure: The antiallergic action of the compounds of the present invention obtained by the above-mentioned preparation process was examining by the following inhibition test of homologous passive cutaneous anaphylaxis (PCA) reaction on rats.
Antiserum was obtained from rats that were immunized with ovalbumin according to the method of Mota [Immunology, 7, 681-699 (1964)]. The antiserum was diluted with physiological saline to make PCA reaction of approximately 10-15 mm in diameter. Groups of 5 male Wistar rats, 8 weeks old and weighing between 200-250 g, were passively sensitized with 0.1 ml of the diluted antiserum injected intradermally in the shaved area on the back. Fourty-eight hours after the sensitization, each above sample dissolved into physiological saline was injected into the rats intravenously via tail vein. Immediately after injection of the sample, rats were challenged with the physiological saline solution containing ovalbumin (25 mg/kg/head) and Evans blue (12.5 mg/kg/head) intravenously via tail vein so as to generate PCA reaction. Thirty minutes after the accomplishment of the challenge, the rats were exsanguinated and removed the skins from the back. The amount of the dye leaked out of the vessels was measured by the method of Katayama et al. [Microbiol. Immunol. 22, 89-101 (1978)].
The effects of samples on PCA reaction were expressed as percentage of inhibition of the leaked amount of the dye calculated by the following equation: [formula] where C is the mean leaked amount of the dye in control group, S is the mean leaked amount of dye in sample treated group. The results of the experiments were shown in Table 1, which included the effect of DSCG used as a positive control.

[2] = Acute toxicity test (LD50); conditions: mouse, in vivo; intravenous via tail vein, male ICR mice, 10 days' observation
Procedure: Acute toxicity tests of the compounds of the present invention were carried out as described below. Groups of 5 male ICR mice, 5 weeks old and weighing 30±5 g, were used. The samples dissolved in physiological saline were injected intravenously via tail vein of the mice. Each LD50 was determined through 10 days' observation.

Row | SMILES | inhibition in vivo at 10 mg/kg ([1]; iv, 10 mg/kg, positive control, **P < 0.005) [%] | inhibition in vivo at 20 mg/kg [1] [%] | LD50 at 240 h [2] [mg/kg]
1 | O=C(O)c1cc(=O)c2c(OCC(O)COc3cccc4oc(C(=O)O)cc(=O)c34)cccc2o1 [DSCG, disodium chromoglycate, reference compound] | 75 | – | –
2 | COc1nc2ccc(C)cn2c1C=C(C#N)C(=O)O [Sample 1, Sodium salt of 3-(2-carboxy-2-cyanovinyl)-2-methoxy-6-methylimidazo[1,2-a]pyridine] | – | 52.6 | –
3 | Cc1cccn2c(C=C(C#N)C(=O)O)c(OC(C)C)nc12 [Sample 2, Sodium salt of 3-(2-carboxy-2-cyanovinyl)-2-isopropoxy-8-methylimidazo[1,2-a]pyridine] | – | 68.4 | ~150
4 | COc1cccn2c(C=C(C#N)C(=O)O)c(OC(C)C)nc12 [Sample 3, Sodium salt of 3-(2-carboxy-2-cyanovinyl)-2-isopropoxy-8-methoxyimidazo[1,2-a]pyridine] | – | 90 | ~350
5 | CCOc1cccn2c(C=C(C#N)C(=O)O)c(OC(C)C)nc12 [Sample 4, Sodium salt of 3-(2-carboxy-2-cyanovinyl)-8-ethoxy-2-isopropoxyimidazo[1,2-a]pyridine] | – | 85.4 | –
6 | CC(C)Oc1nc2c(OC(C)C)cccn2c1C=C(C#N)C(=O)O [Sample 5, Sodium salt of 3-(2-carboxy-2-cyanovinyl)-2,8-diisopropoxyimidazo[1,2-a]pyridine] | – | 94.6 | ~220
7 | CCCCOc1nc2c(C)cccn2c1C=C(C#N)C(=O)O [Sample 6, Sodium salt of 2-butoxy-3-(2-carboxy-2-cyanovinyl)-8-methylimidazo[1,2-a]pyridine] | – | 69.8 | –
8 | Cc1ccn2c(C=C(C#N)C(=O)O)c(OCC(C)C)nc2c1 [Sample 7, Sodium salt of 3-(2-carboxy-2-cyanovinyl)-2-isobutoxy-7-methylimidazo[1,2-a]pyridine] | – | 65.8 | –
9 | CCC(C)Oc1nc2c(C)cccn2c1C=C(C#N)C(=O)O (stereo not drawn) [Sample 8, Sodium salt of 3-(2-carboxy-2-cyanovinyl)-8-methyl-2-secbutoxyimidazo[1,2-a]pyridine] | – | 80.4 | –
10 | CCOc1cccn2c(C=C(C#N)C(=O)O)c(OC(C)CC)nc12 (stereo not drawn) [Sample 9, Sodium salt of 3-(2-carboxy-2-cyanovinyl)-8-ethoxy-2-secbutoxyimidazo[1,2-a]pyridine] | – | 75.3 | –
11 | CCC(C)Oc1nc2c(OC(C)C)cccn2c1C=C(C#N)C(=O)O (stereo not drawn) [Sample 10, Sodium salt of 3-(2-carboxy-2-cyanovinyl)-8-isopropoxy-2-secbutoxyimidazo[1,2-a]pyridine] | – | 92.5 | –
12 | CCCCCCOc1nc2c(C)cccn2c1C=C(C#N)C(=O)O [Sample 11, Sodium salt of 3-(2-carboxy-2-cyanovinyl)-2-hexyloxy-8-methylimidazo[1,2-a]pyridine] | – | 75.7 | –
13 | C=CCCOc1nc2c(C)cccn2c1C=C(C#N)C(=O)O [Sample 12, Sodium salt of 2-(3-butenyloxy)-3-(2-carboxy-2-cyanovinyl)-8-methylimidazo[1,2-a]pyridine] | – | 68.9 | –
14 | Cc1cccn2c(C=C(C#N)C(=O)O)c(OCCCO)nc12 [Sample 13, Sodium salt of 3-(2-carboxy-2-cyanovinyl)-2-(3-hydroxypropoxy)-8-methylimidazo[1,2-a]pyridine] | – | 64.3 | –
15 | CC(=O)NCCCOc1nc2c(C)cccn2c1C=C(C#N)C(=O)O [Sample 14, Sodium salt of 2-(3-acetylaminoproxy)-3-(2-carboxy-2-cyanovinyl)-8-methylimidazo[1,2-a]pyridine] | – | 74.8 | –
16 | Cc1cccn2c(C=C(C#N)C(=O)O)c(OCC3CC3)nc12 [Sample 15, Sodium salt of 3-(2-carboxy-2-cyanovinyl)-2-cyclopropylmethoxy-8-methylimidazo[1,2-a]pyridine] | – | 61.8 | –
17 | COCCOc1nc2c(C)cccn2c1C=C(C#N)C(=O)O [Sample 16, Sodium salt of 3-(2-carboxy-2-cyanovinyl)-2-(2-methoxyethoxy)-8-methylimidazo[1,2-a]pyridine] | – | 68.9 | –
18 | Cc1cccn2c(C=C(C#N)C(=O)O)c(OCCCC#N)nc12 [Sample 17, Sodium salt of 3-(2-carboxy-2-cyanovinyl)-2-(3-cyanoproxy)-8-methylimidazo[1,2-a]pyridine] | – | 71.3 | –
